Data published in patent US9738634B2, “Heterocyclic amide compound and herbicide” (SYNGENTA PARTICIPATIONS AG, priority 2013, dated 2017).

Assays:
Format in all cases: in vivo
barnyard grass [1] = test: Test Example 1: weedkilling efficacy, preemergent weed treatment in the submerged state; A: barnyard grass; details: treatment dosage 252 g/ha
Summary of the method: (§1)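 Pots of alluvial soil flooded 4 cm deep, sown with barnyard grass, bulrush and oval-leafed pondweed and transplanted with 2.5-leaf rice. Emulsified compound applied to the water surface on sowing day at stated g/ha; greenhouse 25–30 °C, effects assessed 3 weeks after treatment.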

bulrush [2] = test: Test Example 1: weedkilling efficacy, preemergent weed treatment in the submerged state; B: bulrush; details: treatment dosage 252 g/ha
Summary of the method: as §1

oval-leafed pondweed [3] = test: Test Example 1: weedkilling efficacy, preemergent weed treatment in the submerged state; C: oval-leafed pondweed; details: treatment dosage 252 g/ha
Summary of the method: as §1

transplanted rice = test: Test Example 1: preemergent weed treatment in the submerged state, effect on crop; a: transplanted rice; details: treatment dosage 252 g/ha
Summary of the method: as §1

barnyard grass [4] = test: Test Example 2: weedkilling efficacy, growth period weed treatment in the submerged state; A: barnyard grass; details: treatment dosage 252 g/ha
Summary of the method: (§2)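 Barnyard grass, bulrush and oval-leafed pondweed sown in alluvial soil under 4 cm flooding, greenhouse 25 to 30° C. At 1-2 leaf stage, water-diluted emulsion applied to the water surface at stated g/ha dosages; effects scored 3 weeks later.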

bulrush [5] = test: Test Example 2: weedkilling efficacy, growth period weed treatment in the submerged state; B: bulrush; details: treatment dosage 252 g/ha
Summary of the method: as §2

oval-leafed pondweed [6] = test: Test Example 2: weedkilling efficacy, growth period weed treatment in the submerged state; C: oval-leafed pondweed; details: treatment dosage 252 g/ha
Summary of the method: as §2

crabgrass = test: Test Example 3: weedkilling efficacy through soil treatment; D: crabgrass; details: soil treatment, treatment dosage 315 g/ha
Text: (§3) Weedkilling Efficacy Test Through Soil Treatment
(§4) Sterilized diluvial soil was introduced into 21 cm long, 13 cm wide, 7 cm deep plastic boxes, and seeds of crabgrass, green foxtail, barnyard grass, wild oat, black-grass, Italian ryegrass, common wind-grass, Indian mallow, redroot pigweed, fig-leafed goosefoot, chickweed, catchweed, birds-eye speedwell, corn, soybean, rice, wheat, beet and rapeseed were each spot-sown, and covered with about 1.5 cm of soil. Next, emulsions of compounds of the present invention prepared according to compounding example 2 were diluted with water to give the specified dosages, and applied uniformly onto the soil surface with a small sprayer. The plants were grown by placing the plastic boxes in a greenhouse at 25 to 30° C., and 3 weeks after the pesticide treatment the effect on each type of plant was investigated on the basis of the assessment criteria of test example 1.
(§5) A: barnyard grass, B: bulrush, C: oval-leafed pondweed, D: crabgrass, E: green foxtail, F: barnyard grass, G: wild oat, H: black-grass, I: Italian ryegrass, J: common wind-grass, K: Indian mallow, L: redroot pigweed, M: fig-leafed goosefoot, N: chickweed, O: catchweed, p: birds-eye speedwell, a: transplanted rice, b: directly sown rice, c: corn, d: soybean, e: wheat, f: beet, g: rapeseed
(§6) Further, pesticide dosage (g/ha) indicates the concentration regulated such that treatment was with only the stated number of grams (g), when calculated per hectare (ha).

green foxtail = test: Test Example 3: weedkilling efficacy through soil treatment; E: green foxtail; details: soil treatment, treatment dosage 315 g/ha
Text: as §3, §4, §5, §6

wild oat = test: Test Example 3: weedkilling efficacy through soil treatment; G: wild oat; details: soil treatment, treatment dosage 315 g/ha
Text: as §3, §4, §5, §6

black-grass = test: Test Example 3: weedkilling efficacy through soil treatment; H: black-grass; details: soil treatment, treatment dosage 315 g/ha
Text: as §3, §4, §5, §6

Italian ryegrass = test: Test Example 3: weedkilling efficacy through soil treatment; I: Italian ryegrass; details: soil treatment, treatment dosage 315 g/ha
Text: as §3, §4, §5, §6

Indian mallow = test: Test Example 3: weedkilling efficacy through soil treatment; K: Indian mallow; details: soil treatment, treatment dosage 315 g/ha
Text: as §3, §4, §5, §6

redroot pigweed = test: Test Example 3: weedkilling efficacy through soil treatment; L: redroot pigweed; details: soil treatment, treatment dosage 315 g/ha
Text: as §3, §4, §5, §6

fig-leafed goosefoot = test: Test Example 3: weedkilling efficacy through soil treatment; M: fig-leafed goosefoot; details: soil treatment, treatment dosage 315 g/ha
Text: as §3, §4, §5, §6

chickweed = test: Test Example 3: weedkilling efficacy through soil treatment; N: chickweed; details: soil treatment, treatment dosage 315 g/ha
Text: as §3, §4, §5, §6

directly sown rice = test: Test Example 3: soil treatment, effect on crop; b: directly sown rice; details: soil treatment, treatment dosage 315 g/ha
Text: as §3, §4, §5, §6

corn = test: Test Example 3: soil treatment, effect on crop; c: corn; details: soil treatment, treatment dosage 315 g/ha
Text: as §3, §4, §5, §6

soybean = test: Test Example 3: soil treatment, effect on crop; d: soybean; details: soil treatment, treatment dosage 315 g/ha
Text: as §3, §4, §5, §6

wheat = test: Test Example 3: soil treatment, effect on crop; e: wheat; details: soil treatment, treatment dosage 315 g/ha
Text: as §3, §4, §5, §6

beet = test: Test Example 3: soil treatment, effect on crop; f: beet; details: soil treatment, treatment dosage 315 g/ha
Text: as §3, §4, §5, §6

| SMILES | A: barnyard grass, weed kill grade (barnyard grass [1]) | B: bulrush, weed kill grade (bulrush [2]) | C: oval-leafed pondweed, weed kill grade (oval-leafed pondweed [3]) | a: transplanted rice, effect on crop grade (transplanted rice) | A (barnyard grass) weedkilling efficacy grade (barnyard grass [4]) | B (bulrush) weedkilling efficacy grade (bulrush [5]) | C (oval-leafed pondweed) weedkilling efficacy grade (oval-leafed pondweed [6]) | D: crabgrass, weedkilling efficacy grade (crabgrass) | E: green foxtail, weedkilling efficacy grade (green foxtail) | G: wild oat, weedkilling efficacy grade (wild oat) | H: black-grass, weedkilling efficacy grade (black-grass) | I: Italian ryegrass, weedkilling efficacy grade (Italian ryegrass) | K: Indian mallow, weedkilling efficacy grade (Indian mallow) | L: redroot pigweed, weedkilling efficacy grade (redroot pigweed) | M: fig-leafed goosefoot, weedkilling efficacy grade (fig-leafed goosefoot) | N: chickweed, weedkilling efficacy grade (chickweed) | b: directly sown rice, effect on crop grade (directly sown rice) | c: corn, effect on crop grade (corn) | d: soybean, effect on crop grade (soybean) | e: wheat, effect on crop grade (wheat) | further results |
| --- | --- | --- | --- | --- | --- | --- | --- | --- | --- | --- | --- | --- | --- | --- | --- | --- | --- | --- | --- | --- | --- |
| Cc1cnc(NC(=O)C(C)(C)N2COCN(c3ccccc3)C2=O)s1 [A-1-08] | 5 (weed kill ratio 90% or more, (practically complete withering)) | 5 (weed kill ratio 90% or more, (practically complete withering)) | 5 (weed kill ratio 90% or more, (practically complete withering)) | 0 (weed kill ratio 5% or less (practically no effect)) | 4 (weed kill ratio 70% or more, less than 90%) | 5 (weed kill ratio 90% or more, (practically complete withering)) | 3 (weed kill ratio 40% or more, less than 70%) | 5 (weed kill ratio 90% or more, (practically complete withering)) | 5 (weed kill ratio 90% or more, (practically complete withering)) | 3 (weed kill ratio 40% or more, less than 70%) | 5 (weed kill ratio 90% or more, (practically complete withering)) | 4 (weed kill ratio 70% or more, less than 90%) | 1 (weed kill ratio 5% or more, less than 20%) | 4 (weed kill ratio 70% or more, less than 90%) | 2 (weed kill ratio 20% or more, less than 40%) | 2 (weed kill ratio 20% or more, less than 40%) | 4 (weed kill ratio 70% or more, less than 90%) | 1 (weed kill ratio 5% or more, less than 20%) | 0 (weed kill ratio 5% or less (practically no effect)) | 0 (weed kill ratio 5% or less (practically no effect)) | f: beet, effect on crop grade (beet): 0 (weed kill ratio 5% or less (practically no effect)) |
| Cc1cc(NC(=O)C(C)(C)N2COCN(c3ccccc3)C2=O)sn1 [A-1-10] | 3 (weed kill ratio 40% or more, less than 70%) | 5 (weed kill ratio 90% or more, (practically complete withering)) | 3 (weed kill ratio 40% or more, less than 70%) | 0 (weed kill ratio 5% or less (practically no effect)) | 0 (weed kill ratio 5% or less (practically no effect)) | 5 (weed kill ratio 90% or more, (practically complete withering)) | 0 (weed kill ratio 5% or less (practically no effect)) | 4 (weed kill ratio 70% or more, less than 90%) | 4 (weed kill ratio 70% or more, less than 90%) | 0 (weed kill ratio 5% or less (practically no effect)) | 2 (weed kill ratio 20% or more, less than 40%) | 4 (weed kill ratio 70% or more, less than 90%) | 3 (weed kill ratio 40% or more, less than 70%) | 4 (weed kill ratio 70% or more, less than 90%) | 4 (weed kill ratio 70% or more, less than 90%) | 0 (weed kill ratio 5% or less (practically no effect)) | 0 (weed kill ratio 5% or less (practically no effect)) | 0 (weed kill ratio 5% or less (practically no effect)) | 0 (weed kill ratio 5% or less (practically no effect)) | 0 (weed kill ratio 5% or less (practically no effect)) | f: beet, effect on crop grade (beet): 4 (weed kill ratio 70% or more, less than 90%) |
| CC(C)(C(=O)Nc1cc(C(F)(F)F)cc(Cl)n1)N1COCN(c2ccccc2)C1=O [A-2-28] | 5 (weed kill ratio 90% or more, (practically complete withering)) | 5 (weed kill ratio 90% or more, (practically complete withering)) | 5 (weed kill ratio 90% or more, (practically complete withering)) | 2 (weed kill ratio 20% or more, less than 40%) | 5 (weed kill ratio 90% or more, (practically complete withering)) | 5 (weed kill ratio 90% or more, (practically complete withering)) | 5 (weed kill ratio 90% or more, (practically complete withering)) | 5 (weed kill ratio 90% or more, (practically complete withering)) | 5 (weed kill ratio 90% or more, (practically complete withering)) | 5 (weed kill ratio 90% or more, (practically complete withering)) | 5 (weed kill ratio 90% or more, (practically complete withering)) | 5 (weed kill ratio 90% or more, (practically complete withering)) | 4 (weed kill ratio 70% or more, less than 90%) | 4 (weed kill ratio 70% or more, less than 90%) | 5 (weed kill ratio 90% or more, (practically complete withering)) | 5 (weed kill ratio 90% or more, (practically complete withering)) | 5 (weed kill ratio 90% or more, (practically complete withering)) | 1 (weed kill ratio 5% or more, less than 20%) | 3 (weed kill ratio 40% or more, less than 70%) | 1 (weed kill ratio 5% or more, less than 20%) | f: beet, effect on crop grade (beet): 5 (weed kill ratio 90% or more, (practically complete withering)) |
| Cc1cccc(NC(=O)C(C)(C)N2COCN(c3ccccc3)C2=O)n1 [A-2-38] | 5 (weed kill ratio 90% or more, (practically complete withering)) | 5 (weed kill ratio 90% or more, (practically complete withering)) | 4 (weed kill ratio 70% or more, less than 90%) | 0 (weed kill ratio 5% or less (practically no effect)) | 3 (weed kill ratio 40% or more, less than 70%) | 5 (weed kill ratio 90% or more, (practically complete withering)) | 3 (weed kill ratio 40% or more, less than 70%) | 5 (weed kill ratio 90% or more, (practically complete withering)) | 5 (weed kill ratio 90% or more, (practically complete withering)) | 5 (weed kill ratio 90% or more, (practically complete withering)) | 5 (weed kill ratio 90% or more, (practically complete withering)) | 5 (weed kill ratio 90% or more, (practically complete withering)) | 2 (weed kill ratio 20% or more, less than 40%) | 5 (weed kill ratio 90% or more, (practically complete withering)) | 4 (weed kill ratio 70% or more, less than 90%) | 4 (weed kill ratio 70% or more, less than 90%) | 5 (weed kill ratio 90% or more, (practically complete withering)) | 2 (weed kill ratio 20% or more, less than 40%) | 2 (weed kill ratio 20% or more, less than 40%) | 0 (weed kill ratio 5% or less (practically no effect)) | f: beet, effect on crop grade (beet): 4 (weed kill ratio 70% or more, less than 90%) |
